In the supplement of paper PMC10307832:

Compound: CCOc1cc2ncc(C#N)c(Nc3ccc(OCc4ccccn4)c(Cl)c3)c2cc1NC(=O)/C=C/CN(C)C [Neratinib] + COc1cc2c(Oc3ccc(NC(=O)C4(C(=O)Nc5ccc(F)cc5)CC4)cc3F)ccnc2cc1OCCCN1CCOCC1 [Foretinib] (partner 0.25 µM)
Assay: relative viability (nuclei count vs DMSO), 5 days (fraction); higher = more cells survive
In short: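 Dosing by pin tool came one day after lung cancer cell lines were seeded in 1536-well plates, using either one drug or a fixed anchor-drug dose plus five library-drug doses (not always all listed) in √10 steps. After 5 days, nuclei were counted on 4× images. Relative viability is treated-well nuclei count divided by vehicle-well nuclei count, and values are medians of duplicate plates.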

Cell Line	relative viability (first compound 0.01 µM)	relative viability (first compound 0.03162 µM)	relative viability (first compound 0.1 µM)	relative viability (first compound 0.3162 µM)	relative viability (first compound 1 µM)
NCI-H650	1.1	1.03	0.952	0.873	0.884
EPLC-272H		0.431	0.45	0.419	0.194
NCI-H647	1.36	1.34		1.11	0.601
NCI-H2009	1.2	1.29	1.17	1.25	1.05
NCI-H661	1.05	1.06	0.836	0.489	0.364
NCI-H1793	0.723		0.408	0.338	0.32
NCI-H1563	0.858	0.942	0.885	0.844	0.75
NCI-H1395	0.919	1.03		1.02	0.668
NCI-H1299	1.1	1.09	1.07	1.12	1.12
HCC-827	1.17	1.11	0.934	0.186	0.173
ChaGo-K-1	0.945	1.07	0.884	0.888	0.718
NCI-H23		0.686		0.942	0.463
NCI-H2170	1.04	1.07	0.909	0.303	0.27
EMC-BAC-2	1.19	0.99	0.669		0.54
A549	0.969	0.927		0.832	0.54
NCI-H2347	0.686	0.909		0.586	0.711
UMC-11	0.989	1.13	1.02	0.954	
NCI-H358	0.613	0.478	0.339	0.154	0.103
LC-2-ad	0.898	0.989	0.777	0.532	0.393

Cell Line	relative viability (first compound 0.01 µM)	relative viability (first compound 0.03162 µM)	relative viability (first compound 0.1 µM)	relative viability (first compound 0.3162 µM)	relative viability (first compound 1 µM)
HCC-15	1.07	1.21		0.885	0.66
NCI-H3122	1.05	0.985	0.94	0.958	0.171
LXF-289	1	1	0.961	0.995	0.709
CAL-12T	1.04	1.12	0.979	0.824	0.284
COR-L23	1.09	1.03	0.946	0.966	0.837
NCI-H1755	0.876	0.988		0.972	0.745
NCI-H1437	1.32	1.26	1.18	1.19	1.28
NCI-H2087	1.36	1.24	1.05	0.742	0.536
IA-LM	1.36	1.36	1.11	0.927	0.628
H3255	0.976	0.425	0.716	0.334	0.17
NCI-H838	1.12	1.08	0.885		0.656
LCLC-103H	0.926	0.805	0.704	0.697	0.496
LOU-NH91	0.971	0.82	0.644	0.542	0.504
NCI-H1650	1.1	1.29	0.744	0.657	0.602
NCI-H322M	0.863	0.958		0.408	0.361
SW 1573	1.15	0.894	0.941	0.97	0.722
Calu-6	0.929	0.891	0.736	0.85	0.513
NCI-H1651	0.789	0.867	0.715	0.593	0.464
NCI-H2126	1.37	1.36	1.13	1.09	0.536
